The source of these data is patent US9573966B2, “Anti-cancer activity of novel bicyclic heterocycles” (Katholieke Universiteit Leuven, K.U.Leuven R&D, priority 2010, dated 2017).

One data set has as its system HSB-2 cells. Briefly: Inhibition of HSB-2 leukemic cell line proliferation (WST-1). Format: cell-based, human. The following applies: Homo sapiens, HSB2, 48 h, cytotoxicity on HSB-2 cells, two days incubation, WST-1 read-out. A digest of the protocol:
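HSB-2 human ALL cells, 50000/well in RPMI-1640 + 10% FCS, exposed to compounds 2 days at 37 °C, then WST-1 2 h, OD 450 nm. Proliferation scaled between untreated (max) and Triton X100 (min) controls; IC50 from ≥4-point curves, each point mean of ≥2 experiments.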
On the technique in general: Formazan colour is commonly taken as a measure of viable cells.

Another data set deals with LNCaP cells. Briefly: Inhibition of LNCaP prostate carcinoma cell line proliferation (WST-1). The class given is cell-based. As to conditions: Homo sapiens, 48 h; cytotoxicity on LNCaP cells, two days incubation, WST-1 read-out. The protocol: LNCaP cell line, a prostate carcinoma cell line, was grown in RPMI-1640 medium (Lonza, Belgium) supplemented with 10% fetal calf serum (Hyclone, US) and antibiotics. Exponential growing phase cells were seed in flat bottom 96-well microplates (TTP, Switzerland) at 10000 cells per well in 200 μl of medium. The day after, 20 μl of compounds (in different concentrations) were added and incubated for two days at 37° C., 5% CO2. After incubation, 100 μl of supernatant were removed and 10 μl of WST-1 (Roche, Switzerland) were added. After 2 hour incubation at 37° C., 5% CO2, optical densities were measured at 450 nm. Proliferation is calculated with respect of control points (no compound and treatment with Triton X100 to have maximum and minimum proliferation data). The IC50 was determined from a graph with at least four points, each derived from the mean of at least 2 experiments. […] The results are shown in Table 3 for a number of compounds.

Another data set concerns HL-60 cells. As to the kind of experiment: Inhibition of HL-60 leukemic cell line proliferation (WST-1). Format: cell-based, human. As to conditions: Homo sapiens, 48 h; cytotoxicity on HL-60 cells, two days incubation, WST-1 read-out. A digest of the protocol:
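HL-60 cells, 50000/well, exposed to compounds for two days at 37 °C, then 2 h WST-1 with OD at 450 nm. Proliferation scaled between untreated and Triton X100 controls; IC50 from at least four points, each a mean of ≥2 experiments.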

A further data set deals with hu EOL-1 leukemia. The protocol:
The test compound (Example 222) was dissolved in DMSO (5% final concentration) and further solubilised in 0.5% Tween 80 in 1% methylcellulose. The resulting suspension was warmed for 10 minutes to 37° C. in an ultrasound water bath to obtain a homogeneous formulation for oral administration. At day 0, 24 male NSG mice received a s.c. inoculum of 10^7 EOL-1 cells taken from in vitro culture and mixed with 50% matrigel. At day 10 tumours were palpable, mice were randomized into three treatment groups and therapy initiated. The test compound (Example 222) and the vehicle were administered orally (p.o.) once daily until the end of the experiment. Cyclophosphamide was administered only once intraperitoneally (i.p.).

One may read the IC50 as the concentration that gives 50% inhibition. With `Cc1cccc(OCC(=O)N2CCN(c3nc(N)nc4sc(-c5cccnc5)nc34)CC2)c1` [Example 275, 1-(4-(5-amino-2-(pyridin-3-yl)thiazolo[5,4-d]pyrimidin-7-yl)piperazin-1-yl)-2-(m-tolyloxy)ethanone], the concentration for half-maximal inhibition (IC50) is 70 nM with HSB-2 cells, 1090 nM in the data set on LNCaP cells and 50 nM with HL-60 cells.
A word on the melting point: it is the temperature, or range, at which the solid turns liquid. `CCOc1nc(N)nc2sc(-c3ccc(F)cc3)cc12` [Example 363, 4-ethoxy-6-(4-fluorophenyl)thieno[2,3-d]pyrimidin-2-amine] showed a melting point of 142 °C.
`Cc1cccc(NC(=O)N2CCN(c3nc(N)nc4sc(-c5cccnc5)nc34)CC2)c1` [Example 276, 4-(5-amino-2-(pyridin-3-yl)thiazolo[5,4-d]pyrimidin-7-yl)-N-m-tolylpiperazine-1-carboxamide]: the IC50 turned out to be 50 nM in the data set with HSB-2 cells, 3050 nM with LNCaP cells and 60 nM in the data set on HL-60 cells.
Turning to `Cc1cccc(NC(=O)N2CCN(c3nc(N)nc4sc(-c5ccccc5)nc34)CC2)c1` [Example 220, 4-(5-amino-2-phenylthiazolo[5,4-d]pyrimidin-7-yl)-N-m-tolylpiperazine-1-carboxamide], the half-inhibitory concentration (IC50) stood at 770 nM with HSB-2 cells, 11200 nM with LNCaP cells and 920 nM with HL-60 cells.
As for `Nc1nc(N2CCN(C(=O)Nc3ccccc3)CC2)c2nc(-c3cccnc3)sc2n1` [Example 440, 4-(5-amino-2-(pyridin-3-yl)thiazolo[5,4-d]pyrimidin-7-yl)-N-phenylpiperazine-1-carboxamide], the results for the IC50 with HSB-2 cells, in the data set with LNCaP cells and in the data set on HL-60 cells were 58 nM, 17100 nM and 64 nM, respectively.
With `Cc1ccc(NC(=O)N2CCN(c3nc(N)nc4sc(-c5cccnc5)nc34)CC2)cc1` [Example 222, 4-(5-amino-2-(pyridin-3-yl)thiazolo[5,4-d]pyrimidin-7-yl)-N-p-tolylpiperazine-1-carboxamide], the “behavioural changes or deaths” value with hu EOL-1 leukemia (EOL-1 xenograft in NSG mice, Example 222 p.o. once daily) was “did not lead to any behavioural changes or deaths”. In the data set on hu EOL-1 leukemia (EOL-1 xenograft model, conclusion), the antileukemic activity entry is “significant antileukemic activity”. This molecule showed a body weight loss with hu EOL-1 leukemia (mouse, in vivo) of 11%. Besides, the tolerability result in the data set with hu EOL-1 leukemia (mouse, in vivo) is recorded as “well tolerated”. The “effect on tumour growth (tumour volume) relative to vehicle” value in the data set on hu EOL-1 leukemia (s.c. EOL-1 tumours in NSG mice, therapy from day 10 to day 21, Example 222 p.o. once daily, cyclophosphamide once i.p.) is “moderate but significant (p<0.05) delay of tumour growth”. Further, the results for the half-maximal inhibitory concentration (IC50) in the data set with HSB-2 cells, in the data set with LNCaP cells and with HL-60 cells were 50 nM, 2870 nM and 50 nM, respectively.
